Data: PubChem BioAssay (NCI)
Where “and” joins values, the source holds several entries; their conditions need not be identical. Identical values can stand only once.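 Grown in 96-well plates, cells were treated for 48 hours with each compound at five concentrations. Insufficient inhibition: endpoint recorded as highest concentration tested. The concentration for 50% growth inhibition is given as GI50. TGI: concentration producing complete growth inhibition.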

The compounds below were run on K-562 leukemia (assay: NCI tumour cell line growth inhibition, 48 h).

Q: How did the TGI turn out when `O=C(NNC(=O)c1ccccc1SSc1ccccc1C(=O)NNC(=O)c1ccccc1S)c1ccccc1S` was run?
A: The TGI was greater than 100 µM.

Q: `CCOC(=O)C(NC(C)=O)(Nc1ccc(F)cc1)C(F)(F)F` (stereo not drawn) was tested. Which TGI did it give?
A: Its TGI is greater than 100 µM.

Q: For `CCOc1cc2c(cc1O)/C(=N\OC)C[C@@H]1[C@@H]2CC[C@]2(C)[C@@H](O)CC[C@@H]12`, which TGI is on record?
A: The TGI was greater than 100 µM.

Q: Which TGI does the source give for `O=C1/C(=C/c2ccc(O)cc2)CC/C1=C\c1ccc(O)cc1` here?
A: Its TGI is greater than 100 µM.

Q: How did the TGI turn out when `COC(=O)[C@H]1CO[C@@H](C(C)(C)C)N1C(=O)N1C=CC(=O)C[C@@H]1C` was run?
A: The TGI was greater than 100 µM.

Q: Which TGI does the source give for `Clc1ccc(/C=C/c2nc3ccccc3s2)cc1Cl` here?
A: Its TGI is greater than 100 µM.

Q: With `C(/c1ccco1)=c1/nc(-c2ccccc2)n2c1nc1ccccc12` as the compound, how does the TGI read?
A: The TGI was 68.3 µM.

Q: For `COC(=O)C1CCC(=O)N1C(c1ccccc1)c1ccc(OC)c(OC)c1` (stereo not drawn), which TGI is on record?
A: Its TGI is greater than 100 µM.

Q: How did the TGI turn out when `Oc1cccc2c(Cl)ccnc12` was run?
A: Its TGI is 5.96 µM.

Q: With `Cc1cccc(/C=N/NC(=S)Nc2ccccc2)n1` as the compound, how does the TGI read?
A: The TGI was greater than 100 µM.

Q: How did the TGI turn out when `NC(=O)C(c1ccccc1)N1OC2C(=O)N(c3ccccc3)C(=O)C2C1c1c2ccccc2c(Cl)c2ccccc12` (stereo not drawn) was run?
A: The TGI was greater than 100 µM.

Q: For `COc1ccc(/C=C2\CCC(C)C3=C2NC(=S)NC3c2ccc(OC)c(OC)c2)cc1OC` (stereo not drawn), which TGI is on record?
A: The TGI was greater than 31.6 µM.

Q: For `C=C(Br)C(C)(Cl)CCC(Br)C(C)(C)Cl` (stereo not drawn), which TGI is on record?
A: Its TGI is greater than 100 µM.

Q: Which results are given for `Cc1c2cnccc2c(C)c2c1c1ccccc1n2CCCN`?
A: GI50: 0.0402 µM; TGI: 0.794 µM and 0.598 µM

Q: How did the TGI turn out when `O=C(CCC(=O)c1ccc(Cl)cc1)NO` was run?
A: The TGI was greater than 100 µM.

Q: `COc1c(C)c(C/C=C(\C)CCCCO[Si](c2ccccc2)(c2ccccc2)C(C)(C)C)c(OC)c(OC)c1OC` was tested. Which TGI did it give?
A: The TGI was greater than 46.4 µM.

Q: `CN1CCN([C@H]2C[C@H]3[C@@H]4CC=C5C[C@@H](O)CC[C@]5(C)[C@H]4CC[C@]3(C)C2=O)CC1` was tested. Which TGI did it give?
A: Its TGI is greater than 100 µM.

Q: `COc1ccc(C2c3cc4c(cc3OC(NNS(=O)(=O)c3ccc(C)cc3)C2C)OCO4)cc1` (stereo not drawn) was tested. Which TGI did it give?
A: The TGI was greater than 100 µM.

Q: How did the TGI turn out when `C[C@@]12C[C@@H](c3ccccc3O1)N1CCCCSC1=N2` was run?
A: Its TGI is greater than 100 µM.

Q: With `CCOC(=O)Nn1c(C)nnc1-c1ccccc1` as the compound, how does the TGI read?
A: The TGI was greater than 100 µM.

Q: Which TGI does the source give for `c1ccc(N=C2SC3=Nc4cccc5cccc(c45)N3C2=Nc2ccccc2)cc1` here?
A: The TGI was greater than 100 µM.

Q: With `N=c1n(C(=O)N2CCCC2)c2cc(Cl)ccc2n1C1=NCCN1` as the compound, how does the TGI read?
A: Its TGI is greater than 100 µM.

Q: For `Nc1cccc2cc(Cl)cnc12`, which TGI is on record?
A: Its TGI is greater than 100 µM.

Q: Which TGI does the source give for `CC1=C(C)[C@@]2(C)O[C@@]2(C)O[C@@]2(C)O[C@@]12C` here?
A: The TGI was greater than 100 µM.

Q: Which TGI does the source give for `C=C1c2nc3ccccc3n2C=C(c2ccccc2)N1c1ccc([N+](=O)[O-])cc1` here?
A: Its TGI is 58.2 µM.

What follows are compounds tested on MDA-MB-231 breast (assay: NCI tumour cell line growth inhibition, 48 h).

Q: `CC[C@@]1(O)C(=O)OCc2c1cc1n(c2=O)Cc2c-1nc1ccccc1c2/C=N\NC(=O)CN` was tested. Which TGI did it give?
A: The TGI was greater than 100 µM.

Q: `O=C(NNC(=O)c1ccccc1SSc1ccccc1C(=O)NNC(=O)c1ccccc1S)c1ccccc1S` was tested. Which TGI did it give?
A: Its TGI is greater than 74.6 µM.

Q: How did the TGI turn out when `CCOC(=O)C(NC(C)=O)(Nc1ccc(F)cc1)C(F)(F)F` (stereo not drawn) was run?
A: Its TGI is greater than 100 µM.

Q: Which TGI does the source give for `CCOc1cc2c(cc1O)/C(=N\OC)C[C@@H]1[C@@H]2CC[C@]2(C)[C@@H](O)CC[C@@H]12` here?
A: The TGI was 44.7 µM.

Q: How did the TGI turn out when `O=C1/C(=C/c2ccc(O)cc2)CC/C1=C\c1ccc(O)cc1` was run?
A: Its TGI is greater than 100 µM.

Q: How did the TGI turn out when `COC(=O)[C@H]1CO[C@@H](C(C)(C)C)N1C(=O)N1C=CC(=O)C[C@@H]1C` was run?
A: The TGI was greater than 100 µM.

Q: For `Clc1ccc(/C=C/c2nc3ccccc3s2)cc1Cl`, which TGI is on record?
A: Its TGI is greater than 100 µM.

Q: With `C(/c1ccco1)=c1/nc(-c2ccccc2)n2c1nc1ccccc12` as the compound, how does the TGI read?
A: The TGI was greater than 100 µM.

Q: How did the TGI turn out when `COC(=O)C1CCC(=O)N1C(c1ccccc1)c1ccc(OC)c(OC)c1` (stereo not drawn) was run?
A: Its TGI is greater than 100 µM.

Q: How did the TGI turn out when `Oc1cccc2c(Cl)ccnc12` was run?
A: Its TGI is 97.5 µM.

Q: With `Cc1cccc(/C=N/NC(=S)Nc2ccccc2)n1` as the compound, how does the TGI read?
A: The TGI was greater than 26.1 µM.

Q: `NC(=O)C(c1ccccc1)N1OC2C(=O)N(c3ccccc3)C(=O)C2C1c1c2ccccc2c(Cl)c2ccccc12` (stereo not drawn) was tested. Which TGI did it give?
A: Its TGI is greater than 100 µM.

Q: With `COc1ccc(/C=C2\CCC(C)C3=C2NC(=S)NC3c2ccc(OC)c(OC)c2)cc1OC` (stereo not drawn) as the compound, how does the TGI read?
A: Its TGI is greater than 31.6 µM.

Q: For `C=C(Br)C(C)(Cl)CCC(Br)C(C)(C)Cl` (stereo not drawn), which TGI is on record?
A: The TGI was greater than 100 µM.

Q: How did the TGI turn out when `Cc1c2cnccc2c(C)c2c1c1ccccc1n2CCCN` was run?
A: Its TGI is 0.439 µM.

Q: For `O=C(CCC(=O)c1ccc(Cl)cc1)NO`, which TGI is on record?
A: Its TGI is greater than 100 µM.

Q: `COc1c(C)c(C/C=C(\C)CCCCO[Si](c2ccccc2)(c2ccccc2)C(C)(C)C)c(OC)c(OC)c1OC` was tested. Which TGI did it give?
A: Its TGI is greater than 100 µM.

Q: Which TGI does the source give for `CN1CCN([C@H]2C[C@H]3[C@@H]4CC=C5C[C@@H](O)CC[C@]5(C)[C@H]4CC[C@]3(C)C2=O)CC1` here?
A: The TGI was greater than 100 µM.

Q: How did the TGI turn out when `COc1ccc(C2c3cc4c(cc3OC(NNS(=O)(=O)c3ccc(C)cc3)C2C)OCO4)cc1` (stereo not drawn) was run?
A: Its TGI is greater than 100 µM.

Q: With `C[C@@]12C[C@@H](c3ccccc3O1)N1CCCCSC1=N2` as the compound, how does the TGI read?
A: Its TGI is greater than 100 µM.

Q: How did the TGI turn out when `CCOC(=O)Nn1c(C)nnc1-c1ccccc1` was run?
A: Its TGI is greater than 100 µM.

Q: Which TGI does the source give for `c1ccc(N=C2SC3=Nc4cccc5cccc(c45)N3C2=Nc2ccccc2)cc1` here?
A: The TGI was greater than 100 µM.

Q: For `Cc1cc(O)c2c(=O)c3ccccc3[nH]c2c1`, which TGI is on record?
A: Its TGI is greater than 100 µM.

Q: `N=c1n(C(=O)N2CCCC2)c2cc(Cl)ccc2n1C1=NCCN1` was tested. Which TGI did it give?
A: The TGI was greater than 100 µM.

Q: With `Nc1cccc2cc(Cl)cnc12` as the compound, how does the TGI read?
A: The TGI was greater than 100 µM.

Q: How did the TGI turn out when `CC1=C(C)[C@@]2(C)O[C@@]2(C)O[C@@]2(C)O[C@@]12C` was run?
A: The TGI was greater than 100 µM.

Q: For `C=C1c2nc3ccccc3n2C=C(c2ccccc2)N1c1ccc([N+](=O)[O-])cc1`, which TGI is on record?
A: The TGI was 14.2 µM.

Each compound was assayed on MDA-N (assay: NCI tumour cell line growth inhibition, 48 h).

Q: With `CC[C@@]1(O)C(=O)OCc2c1cc1n(c2=O)Cc2c-1nc1ccccc1c2/C=N\NC(=O)CN` as the compound, how does the TGI read?
A: The TGI was greater than 100 µM.

Q: Which TGI does the source give for `O=C(NNC(=O)c1ccccc1SSc1ccccc1C(=O)NNC(=O)c1ccccc1S)c1ccccc1S` here?
A: Its TGI is greater than 100 µM.

Q: For `CCOC(=O)C(NC(C)=O)(Nc1ccc(F)cc1)C(F)(F)F` (stereo not drawn), which TGI is on record?
A: The TGI was greater than 100 µM.

Q: How did the TGI turn out when `CCOc1cc2c(cc1O)/C(=N\OC)C[C@@H]1[C@@H]2CC[C@]2(C)[C@@H](O)CC[C@@H]12` was run?
A: The TGI was 0.031 µM.

Q: With `O=C1/C(=C/c2ccc(O)cc2)CC/C1=C\c1ccc(O)cc1` as the compound, how does the TGI read?
A: Its TGI is greater than 100 µM.

Q: How did the TGI turn out when `COC(=O)[C@H]1CO[C@@H](C(C)(C)C)N1C(=O)N1C=CC(=O)C[C@@H]1C` was run?
A: The TGI was greater than 100 µM.

Q: `Clc1ccc(/C=C/c2nc3ccccc3s2)cc1Cl` was tested. Which TGI did it give?
A: Its TGI is greater than 100 µM.

Q: With `C(/c1ccco1)=c1/nc(-c2ccccc2)n2c1nc1ccccc12` as the compound, how does the TGI read?
A: Its TGI is 54.4 µM.

Q: For `COC(=O)C1CCC(=O)N1C(c1ccccc1)c1ccc(OC)c(OC)c1` (stereo not drawn), which TGI is on record?
A: Its TGI is greater than 100 µM.

Q: For `Oc1cccc2c(Cl)ccnc12`, which TGI is on record?
A: Its TGI is greater than 100 µM.

Q: With `Cc1cccc(/C=N/NC(=S)Nc2ccccc2)n1` as the compound, how does the TGI read?
A: Its TGI is greater than 100 µM.

Q: `NC(=O)C(c1ccccc1)N1OC2C(=O)N(c3ccccc3)C(=O)C2C1c1c2ccccc2c(Cl)c2ccccc12` (stereo not drawn) was tested. Which TGI did it give?
A: Its TGI is greater than 100 µM.

Q: How did the TGI turn out when `COc1ccc(/C=C2\CCC(C)C3=C2NC(=S)NC3c2ccc(OC)c(OC)c2)cc1OC` (stereo not drawn) was run?
A: Its TGI is 12.1 µM.

Q: `C=C(Br)C(C)(Cl)CCC(Br)C(C)(C)Cl` (stereo not drawn) was tested. Which TGI did it give?
A: Its TGI is greater than 100 µM.

Q: Which TGI does the source give for `Cc1c2cnccc2c(C)c2c1c1ccccc1n2CCCN` here?
A: The TGI was 1.39 µM.
